The values below come from patent US20150004110A1, “NOVEL ANTI-AGING AND DEPIGMENTING COSMETIC COMPOSITIONS” (DIVERCHIM, priority 2011, published 2015).

Data set [1] has as its system B16 melanocytes stimulated with NDP-MSH. Nature of the data set: Anti-melanogenesis activity: melanin synthesis in B16 melanocytes stimulated with NDP-MSH. The following applies: Melanocyte, NDP-MSH stimulated B16, 72 h, Table 2, read-out: Standardized data Inhibition (%) (melanin). In kind it is cell-based. On the procedure:
The depigmenting effect was evaluated on a line of type B16 melanocytes stimulated with NDP-MSH, (natural hormone stimulating melanogenesis; Melanocyte Stimulating Hormone, [Nle, DPhe]-α-MSH). Melanin synthesis was evaluated.
The anti-melanogenesis activity of the compounds in solution in DMSO was evaluated by measuring melanin synthesis in a model of B16 melanocytes stimulated with a stable derivative of α-MSH (natural melanogenesis stimulating hormone): NDP-MSH.
(§1) The melanocytes were seeded in a 96-well plate and were cultured for 24 h (37° C., 5% CO2, DMEM 1 g/L glucose without phenol red supplemented with glucose at 3 g/L, L-glutamine at 2 mM, penicillin at 50 U/mL, streptomycin at 50 μg/mL, foetal calf serum (FCS) at 10%). After incubation, the culture medium was then replaced with culture medium supplemented or not supplemented (unstimulated control) with a stable derivative of α-MSH and containing or not containing (controls) the test compounds or the reference (kojic acid at 25, 100, 400, 800 μg/mL). Each experiment was carried out with n=3, apart from the controls carried out with n=6, then the cells were incubated for 72 h. Wells without cells received in parallel the same quantities of medium supplemented or not supplemented with NDP-MSH and containing or not containing the test compounds or the reference in order to quantify the background noise associated with the presence of the compounds.
After incubation for 72 hours, the total melanin (intra- and extracellular) was quantified by measuring the absorption at 405 nm of each sample (direct reading of the culture plates) against a standard range of melanin (melanin concentrations tested from 0.78 to 100 μg/mL). The background noise, measured in the wells without cells, was subtracted from the measured values so as only to take into account the effect connected with melanin production, without taking into account the possible interference connected with the presence of the compounds. The results were expressed as percentage of melanin relative to the control as well as percentage inhibition.
The operating conditions are the same as in Example 12.

The next data set relates to B16 melanocytes. Nature of the data set: Cell viability, MTT reduction test. The note with it: B16, 72 h, Table 2. In kind it is cell-based. As for the experimental part: as §1, with “compounds. At the end of the treatment, the cells were incubated in the presence of MTT (tetrazolium salt), the transformation of which to blue crystals of formazan is proportional to the activity of succinate dehydrogenase (mitochondrial enzyme). After dissociation of the cells, the formazan was dissolved in DMSO medium and the optical density (OD), representative of the number of living cells and of their metabolic reactivity, was measured with a microplate reader at 540 nm (VERSAmax, Molecular Devices). The operating conditions are the same as in Example 12.” for “compounds.”
On the technique in general: Formazan colour is commonly taken as a measure of viable cells.

Data set [2] has as its system skin explants (abdominoplasty). In words: Histological assessment of the general morphology of skin explants maintained in survival. The following applies: 2 μg/mL in DMSO, after 9 days of survival. Format: cell-based, human. On the procedure:
1. Preparation of the explants • During abdominoplasty of a person, 45 skin explants were prepared. The explants were put in BEM medium (BIO-EC's Explants Medium) for survival at 37° C. in humid atmosphere, enriched with 5% CO2.
2. Application of the products • The solutions are prepared in DMSO from pure products, in order to obtain final concentrations of […] by incorporating an identical volume of 10 μl in each well and for each treatment. The treatment was carried out in the survival medium on days 0, 1, 2, 5 and 7.
3. Taking samples • On D0, the 3 explants of batch TO were taken and each explant was cut in two. One part was fixed in buffered formol for observation of the general morphology. The other was frozen and stored at −80° C. • On D5 and D9, 3 explants from each batch were taken and treated in the same way.
4. […]
5. Microscopic observations • The microscopic observations were carried out by light microscopy and fluorescence microscopy, using a Orthoplan-type Leica microscope, with ×25 objective. The images were recorded with a Sony DXC 390P tri CCD camera and stored using the Leica IM1000 data archiving software. • The general morphology was observed on sections in paraffin after staining with Masson trichrome, Goldner variant according to procedure MO-H-157. […]

In general, inhibition refers to the drop in the measured response relative to a control, in per cent.

For the molecule `CC(=O)Nc1ccc(OCCc2ccccc2OC(C)=O)cc1` [Compound 22], in data set [1], the inhibition at 30 µM is -3% and the inhibition at 100 µM was found to be 61%. For the same molecule, the “Viability (MTT) % stimulated control” value with B16 melanocytes (30 μM) was found to be 97%. Further, in the data set on B16 melanocytes (100 μM), the “Viability (MTT) % stimulated control” value is 86%.
As for `CCOc1ccc(OCC(O)c2ccccc2O)cc1` (stereo not drawn) [Compound 57], the inhibition at 30 µM in data set [1] was 47%. Also, the “Viability (MTT) % stimulated control” value in the data set with B16 melanocytes (30 μM) was 97%.
`CCC(C)(C)c1ccc(OCC(=O)c2ccccc2O)cc1` [Compound 44]: in data set [1], the inhibition at 10 µM stood at 24% and the inhibition at 30 µM was found to be 117%. Moreover, the “Viability (MTT) % stimulated control” value in the data set on B16 melanocytes (10 μM) worked out at 89%. Moreover, the “Viability (MTT) % stimulated control” value with B16 melanocytes (30 μM) is given as 80%.
For `C[C@]12CC[C@H](O)CC1=CC[C@@H]1[C@@H]2CC[C@]2(C)C(=O)CC[C@@H]12` [(+)-dehydroisoandrosterone, reference compound], the “General morphology: epidermal structure and papillary dermis” value in data set [2] is reported as “does not alter the epidermal structure or the papillary dermis”.
Consider `CC(C)c1ccc(OCCc2ccccc2O)cc1` [Compound 39], for which the inhibition at 3 µM in data set [1] was determined as 70%. Besides, the inhibition at 10 µM in data set [1] stood at 111%. In data set [1], the inhibition at 30 µM amounted to 119%. In addition, the “Viability (MTT) % stimulated control” value in the data set on B16 melanocytes (3 μM) was 119%; in the data set on B16 melanocytes (10 μM), 101%; in the data set with B16 melanocytes (30 μM), 86%.
Take `Fc1ccc(OCCc2ccccc2C(F)(F)F)cc1` [Compound 10]: in data set [1], the inhibition at 30 µM was -11% and the inhibition at 100 µM turned out to be 27%. Further, in the data set with B16 melanocytes (30 μM), the “Viability (MTT) % stimulated control” value came out at 87%. Moreover, the “Viability (MTT) % stimulated control” value in the data set with B16 melanocytes (100 μM) is reported as 91%.
In the case of `CCC(C)(C)c1ccc(OCCc2ccccc2O)cc1` [Compound 43], the inhibition at 3 µM in data set [1] is 88%. Also, the inhibition at 10 µM in data set [1] was found to be 119%. Further, the inhibition at 30 µM in data set [1] amounted to 120%. Also, the “Viability (MTT) % stimulated control” value in the data set with B16 melanocytes (3 μM) is reported as 116%; in the data set with B16 melanocytes (10 μM), 90%; in the data set on B16 melanocytes (30 μM), 9%.
